Measurements taken from patent US11780826B2 (Amgen Inc., priority 2017, dated 2023).

Test system: Bovine cardiac myofibrils
Test: In vitro model of dose-dependent myofibril ATPase modulation (AC1.4, pyruvate kinase/lactate dehydrogenase-coupled ATPase assay at pCa25)
Assay type: biochemical
Conditions: concentration at which ATPase activity was 1.4-fold higher than the bottom of the dose curve, mean of a minimum of two independent tests
Summary of the method: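 Bovine cardiac myofibrils, detergent-treated; 0.25-1.0 mg/ml. Buffer: K-PIPES 12 mM, MgCl2 2 mM, DTT 1 mM, BSA 0.1 mg/ml, pH 6.80, 22° C; Ca2+ set by EGTA/CaCl2. ATP 1 mM, NADH/PEP-coupled, A340. 4-parameter fit; n≥2.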

SMILES	AC1.4 [µM]
Cc1ccc(C(=O)N2[C@@H](C(=O)N[C@@H](c3ccc(C(F)(F)F)cc3F)C3COC3)C[C@H]3C[C@H]32)cc1S(C)(=O)=O [Example 727, (1R,3R,5R)-N-((R)-(2-fluoro-4-(trifluoromethyl)phenyl)(3-oxetanyl)methyl)-2-(4-methyl-3-(methylsulfonyl)benzoyl)-2-azabicyclo[3.1.0]hexane-3-carboxamide]	6.61
CS(=O)(=O)c1cccc(C(=O)N2[C@@H](C(=O)N[C@@H](c3ccc(F)cc3F)C3COC3)C[C@H]3C[C@H]32)c1 [Example 728, (1R,3R,5R)-N-((R)-(2,4-difluorophenyl)(3-oxetanyl)methyl)-2-(3-(methylsulfonyl)benzoyl)-2-azabicyclo[3.1.0]hexane-3-carboxamide]	6.701
CC(NC(=O)[C@H]1CCCN1C(=O)[C@H]1CCCN(S(=O)(=O)N2CC(C#N)C2)C1)c1ccc(F)cc1 (stereo partly drawn) [Example 729, 1-(((3S)-1-((3-cyano-1-azetidinyl)sulfonyl)-3-piperidinyl)carbonyl)-N-((1R)-1-(4-fluorophenyl)ethyl)-D-prolinamide,1-(((3S)-1-((3-cyano-1-azetidinyl)sulfonyl)-3-piperidinyl)carbonyl)-N-((1S)-1-(4-fluorophenyl)ethyl)-D-prolinamide]	6.7185
CC1(O)CN(S(=O)(=O)N2CCC[C@H](C(=O)N3CCC[C@@H]3C(=O)NCc3ccc(C(F)(F)F)cc3)C2)C1 [Example 730, 1 (((3S)-1-((3-hydroxy-3-methyl-1-azetidinyl)sulfonyl)-3-piperidinyl)carbonyl)-N-(4-(trifluoromethyl)benzyl)-D-prolinamide]	6.7333
CS(=O)(=O)c1cc(C(=O)N2[C@@H](C(=O)N[C@@H](c3cc(F)c(C(F)(F)F)cc3F)C3CC3)C[C@@H]3C[C@@H]32)ccn1 [Example 731, (1S,3R,5S)-N-((R)-cyclopropyl(2,5-difluoro-4-(trifluoromethyl)phenyl)methyl)-2-((2-(methylsulfonyl)-4-pyridinyl)carbonyl)-2-azabicyclo[3.1.0]hexane-3-carboxamide]	6.763
CS(=O)(=O)c1cccc(C(=O)N2CC[C@H]2C(=O)N[C@@H](c2cc(F)c(Cl)cc2F)C2CC2)c1 [Example 732, (2S)-N-((R)-(4-chloro-2,5-difluorophenyl)(cyclopropyl)methyl)-1-(3-(methylsulfonyl)benzoyl)-2-azetidinecarboxamide]	6.7885
N#CC1CN(S(=O)(=O)N2CCC[C@H](C(=O)N3CCC[C@@H]3C(=O)N[C@@H](CO)c3ccc(Cl)cc3)C2)C1 [Example 733, N-((1R)-1-(4-chlorophenyl)-2-hydroxyethyl)-1-(((3S)-1-((3-cyano-1-azetidinyl)sulfonyl)-3-piperidinyl)carbonyl)-D-prolinamide]	6.8025
CC(C)(C)OC1CN(S(=O)(=O)N2CCC[C@H](C(=O)N3CCC[C@@H]3C(=O)NCc3ccc(C(F)(F)F)cc3)C2)C1 [Example 734, 1-(((3S)-1-((3-tert-butoxy-1-azetidinyl)sulfonyl)-3-piperidinyl)carbonyl)-N-(4-(trifluoromethyl)benzyl)-D-prolinamide]	6.866
CCCCCC1CN(S(=O)(=O)N2CCC[C@H](C(=O)N3CCC[C@@H]3C(=O)NCc3ccc(C(F)(F)F)cc3)C2)C1 [Example 735, 1-(((3S)-1-((3-pentyl-1-azetidinyl)sulfonyl)-3-piperidinyl)carbonyl)-N-(4-(trifluoromethyl)benzyl)-D-prolinamide]	7.0265
Cc1cc(C(=O)N2[C@@H](C(=O)N[C@@H](c3cc(F)c(Cl)cc3F)C3CC3)C[C@H]3C[C@H]32)ccn1 [Example 736, (1R,3R,5R)-N-((R)-(4-chloro-2,5-difluorophenyl)(cyclopropyl)methyl)-2-((2-methyl-4-pyridinyl)carbonyl)-2-azabicyclo[3.1.0]hexane-3-carboxamide]	7.041
CC(C)(C)c1cc(C(=O)N2[C@@H](C(=O)N[C@@H](c3ccc(Cl)cc3F)C3COC3)C[C@H]3C[C@H]32)ccn1 [Example 738, (1R,3R,5R)-N-((R)-(4-chloro-2-fluorophenyl)(3-oxetanyl)methyl)-2-((2-(2-methyl-2-propanyl)-4-pyridinyl)carbonyl)-2-azabicyclo[3.1.0]hexane-3-carboxamide]	7.0545
O=C(NCc1ccc(C(F)(F)F)cc1)[C@H]1CCCN1C(=O)[C@H]1CCCN(S(=O)(=O)N2CC(C3CCOC3)C2)C1 (stereo partly drawn) [Example 739, (2R)-1-((3S)-1-((3-(tetrahydrofuran-3-yl)azetidin-l-yl)sulfonyl)piperidine-3-carbonyl)-N-(4-(trifluoromethyl)benzyl)pyrrolidine-2-carboxamide]	7.1325
CC(C)(C)[C@@H](NC(=O)[C@H]1CCCN1C(=O)[C@H]1CCCN(S(=O)(=O)N2CC(C#N)C2)C1)c1ccc(C(F)(F)F)cc1 [Example 740, 1-(((3S)-1-((3-cyano-1-azetidinyl)sulfonyl)-3-piperidinyl)carbonyl)-N-((1R)-2,2-dimethyl-1-(4-(trifluoromethyl)phenyl)propyl)-D-prolinamide]	7.156
Cc1ccc(C(F)(F)F)c(CNC(=O)[C@H]2CCCN2C(=O)[C@H]2CCCN(S(=O)(=O)N3CC(C#N)C3)C2)c1 [Example 741, 1-(((3S)-1-((3-cyano-1-azetidinyl)sulfonyl)-3-piperidinyl)carbonyl)-N-(5-methyl-2-(trifluoromethyl)benzyl)-D-prolinamide]	7.1615
O=C(NCc1ccc(C(F)(F)F)cc1)[C@H]1CCCN1C(=O)[C@H]1CCCN(S(=O)(=O)N2CC3(C2)CC(O)(C(F)(F)F)C3)C1 [Example 743, 1-(((3S)-1-((6-hydroxy-6-(trifluoromethyl)-2-azaspiro[3.3]hept-2-yl)sulfonyl)-3-piperidinyl)carbonyl)-N-(4-(trifluoromethyl)benzyl)-D-prolinamide]	7.2015
N#CC1CN(S(=O)(=O)N2CCC[C@H](C(=O)N3CCC[C@@H]3C(=O)NCc3ccccc3C(F)(F)F)C2)C1 [Example 746, 1-(((3S)-1-((3-cyano-1-azetidinyl)sulfonyl)-3-piperidinyl)carbonyl)-N-(2-(trifluoromethyl)benzyl)-D-prolinamide]	7.268
COc1cc(F)c([C@H](NC(=O)[C@H]2C[C@H]3C[C@H]3N2C(=O)c2cccc(S(C)(=O)=O)c2)C2CC2)cc1F [Example 747, (1R,3R,5R)-N-((R)-cyclopropyl(2,5-difluoro-4-methoxyphenyl)methyl)-2-(3-(methylsulfonyl)benzoyl)-2-azabicyclo[3.1.0]hexane-3-carboxamide]	7.287
CC(C)c1cc(C(=O)N2[C@@H](C(=O)N[C@@H](c3ccc(C(F)(F)F)cc3F)C3COC3)C[C@H]3C[C@H]32)ccn1 [Example 748, (1R,3R,5R)-N-((R)-(2-fluoro-4-(trifluoromethyl)phenyl)(3-oxetanyl)methyl)-2-((2-(2-propanyl)-4-pyridinyl)carbonyl)-2-azabicyclo[3.1.0]hexane-3-carboxamide]	7.314

The remaining lines, values ahead:

AC1.4 [µM]	SMILES
6.507	N#CC1CN(S(=O)(=O)c2cccc(C(=O)N3CCC[C@@H]3C(=O)NCc3ncc(C(F)(F)F)cn3)c2)C1 [Example 725, 1-((3-((3-cyano-1-azetidinyl)sulfonyl)phenyl)carbonyl)-N-((5-(trifluoromethyl)-2-pyrimidinyl)methyl)-D-prolinamide]
6.547	O=C(N[C@@H](c1ccc(C(F)(F)F)cc1F)C1CC1)[C@H]1CCCN1C(=O)c1cccc(-c2ccsc2)c1 [Example 726, N-((R)-cyclopropyl(2-fluoro-4-(trifluoromethyl)phenyl)methyl)-1-(3-(3-thiophenyl)benzoyl)-D-prolinamide]
7.053	O=C(N[C@@H](c1ccc(C(F)(F)F)cc1F)C1CC1)[C@H]1CCCN1C(=O)c1cccc(-c2cn[nH]c2)c1 [Example 737, N-((R)-cyclopropyl(2-fluoro-4-(trifluoromethyl)phenyl)methyl)-1-(3-(1H-pyrazol-4-yl)benzoyl)-D-prolinamide]
7.2	CS(=O)(=O)c1cccc(C(=O)N2CCC[C@@H]2C(=O)N[C@@H]2CCc3cc(C(F)(F)F)ccc32)c1 [Example 742, 1-(3-(methylsulfonyl)benzoyl)-N-((1R)-5-(trifluoromethyl)-2,3-dihydro-1H-inden-1-yl)-D-prolinamide]
7.232	CN(C)S(=O)(=O)N1CCC[C@H](C(=O)N2CCC[C@@H]2C(=O)NCc2ccc(C(F)(F)F)cc2)C1 [Example 744, 1-(((3S)-1-(dimethylsulfamoyl)-3-piperidinyl)carbonyl)-N-(4-(trifluoromethyl)benzyl)-D-prolinamide]
7.244	O=C(N[C@@H](c1ccc(C(F)(F)F)cc1F)C1CC1)[C@H]1CCCN1C(=O)c1cccc(-c2cc[nH]n2)c1 [Example 745, N-((R)-cyclopropyl(2-fluoro-4-(trifluoromethyl)phenyl)methyl)-1-(3-(1H-pyrazol-3-yl)benzoyl)-D-prolinamide]
7.3175	C#CCN(C)S(=O)(=O)c1cccc(C(=O)N2CCC[C@@H]2C(=O)N[C@H](C)c2ccc(C(F)(F)F)cc2)c1 [Example 749, 1-(3-(methyl(2-propyn-1-yl)sulfamoyl)benzoyl)-N-((1R)-1-(4-(trifluoromethyl)phenyl)ethyl)-D-prolinamide]
7.3925	CS(=O)(=O)c1cccc(C(=O)N2CC[C@@H]3C[C@]32C(=O)N[C@@H](c2ccc(C(F)(F)F)cc2F)C2CC2)c1 [Example 751, (1R,5R)-N-((R)-cyclopropyl(2-fluoro-4-(trifluoromethyl)phenyl)methyl)-2-(3-(methylsulfonyl)benzoyl)-2-azabicyclo[3.1.0]hexane-1-carboxamide]
